Experiments:
[1] = system: integrin αvβ3; assay: anti-integrin αvβ3 immunohistochemical staining of dissected tumor tissues; assay type: in vivo, BALB/c nu/nu nude mice; details: TMZ 5 mgkg^−1, after 2 weeks
Experimental: Tumor tissues were harvested on day 14 after the treatment and immediately fixed in 10% formalin solution. Frozen tissue sections (5 μm) were placed onto glass slides. The tumor sections were stained with anti-integrin αvβ3 rabbit antibody (1:1000, Millipore) at 4 °C for 16 h. The sections were then incubated with anti-rabbit secondary antibody (biotinylated) at room temperature for 1 h. The detection system (Vector Laboratories, Burlingame, CA, USA) was applied according to the manufacturer’s instructions. The nuclei were counter-stained with hematoxylin (Invitrogen, Carlsbad, CA, USA). For assessment of tumor vascularization, mouse anti-human CD31 monoclonal antibody (diluted 1:40, Dako) staining was performed on acetone-fixed cryosections using a blood vessel staining kit (ECM590, Millipore Ireland, Cork, Ireland). For another assessment of integrin αvβ3 receptors in dissected tumor tissues, anti-integrin αvβ3 (SC-7312, Santa Cruz Biotech, Santa Cruz, CA, USA) was used. Primary antibody against γH2AX (diluted 1:50, Abcam) was applied to acetone-fixed cryosections and incubated overnight. […] Images were acquired using Axioscope A1 fluorescent microscope (Carl Zeiss, Jena, Germany) or AxioCam MRc5 (Carl Zeiss, Jena, Germany) and analyzed with Axiovision software (version 4.4, Carl Zeiss Meditec, Jena, Germany). […]

[2] = system: U87-MG xenografts; assay: combination therapy of TMZ with 188Re-IDA-D-[c(RGDfK)]2: tumor volume; assay type: in vivo, BALB/c nu/nu nude mice; details: TMZ 2 or 5 mgkg^−1 once a week for 14 days, n = 4
Experimental: A suspension of human glioblastoma U87-MG cells was prepared (5 × 10^6 cellsmL^−1). A total of 0.1 mL of cell suspension was injected subcutaneously into the right flank of a 6–7-week-old male BALB/c nu/nu nude mice (20–25 g, Orient Bio Inc., Seongnam, Korea). In the case of pharmacokinetic studies of ^99mTc-IDA-D-[c(RGDfK)]2, we used tumor xenograft mice whose tumor cells were inoculated in the right shoulder and performed the SPECT imaging study when tumor volume reached 68.7 ± 18.8 mm^3 at 10 days after injection of U87-MG cells. Evaluations of integrin-targeted blocking and radiotherapy treatment on the growth of U87-MG xenografts were carried out when tumor volume reached 59.4 ± 14.9 mm^3 (For authentic “cold” Re-peptide (^185/187Re-IDA-D-[c(RGDfK)]2) treatment) and 66.2 ± 15.3 mm^3 (For radiotherapy (^188Re-IDA-D-[c(RGDfK)]2) treatment) at 10 days after injection of U87-MG cells. Experiments with vehicle, negative control peptide (^188Re-IDA-D-[c(RADfK)]2) or ^188Re-IDA-D-[c(RGDfK)]2 treatments (11.1 MBq) in U87-MG xenografts were carried out when tumor volume reached 40.3 ± 14.8 mm^3 at 9 days after injection of U87-MG cells. […]
For caliper measurements, tumor length (longitudinal diameter) and tumor width (transverse diameter) were measured, and the tumor volume was calculated according to the following formula: tumor volume = (length × width^2)/2.

Cn1nnc2c(C(N)=O)ncn2c1=O [TMZ, Temozolomide]
integrin expression in tumor tissues [1]: reduced integrin expression | tumor size compared with saline treatment [2]: significantly reduced tumor size

Source: publication PMC8507696, “Effect of Peptide Receptor Radionuclide Therapy in Combination with Temozolomide against Tumor Angiogenesis in a Glioblastoma Model” (Cancers, 2021)
